Numbered stars: 1 amine (or outer) side, 2 acyl side, 3 side chain; on linkers, the order of the positions; unused ones are H or OH. Square brackets hold non-standard residues; d marks the D form. Peptide text beside a SMILES is read from it. * marks the point of attachment. X3 = O=C([C@@H](N[*:1])C(c1ccccc1)(c1ccccc1)c1ccccc1)[*:2]; X2 = Cc1c(C)c(C)c(C[C@H](N[*:1])C(=O)[*:2])c(C)c1C; dDip = N[C@@H](C(=O)O)C(c1ccccc1)c1ccccc1; Dip = N[C@H](C(=O)O)C(c1ccccc1)c1ccccc1; 3Pal = N[C@@H](Cc1cccnc1)C(=O)O; Suc = O=C(CCC(=O)[*:2])[*:1]; Piv = CC(C)(C)C(=O)*; Propionyl = CCC(=O)*

Test system in one test: not listed separately
Kind of test: Relative affinities against endothelin A receptor (rabbit) and endothelin B receptor (rat). Set-up: reference not given here.
Turning to `CC[C@H](C)[C@H](NC(=O)[C@H](CC(=O)O)NC(=O)[C@H](CC(C)C)NC(=O)[C@@H](NC(=O)C(C)(C)C)C(c1ccccc1)c1ccccc1)C(=O)N[C@H](C(=O)N[C@@H](Cc1c[nH]c2ccccc12)C(=O)O)[C@@H](C)CC` (Piv-[Dip]LDIIW-OH), the Ratio was determined as 25.
Still for that read-out and setting: next, `CCC(=O)N[C@H](C(=O)N[C@@H](CC(C)C)C(=O)N[C@@H](CC(=O)O)C(=O)N[C@H](C(=O)N[C@H](C(=O)N[C@@H](Cc1c[nH]c2ccccc12)C(=O)O)[C@@H](C)CC)[C@@H](C)CC)C(c1ccccc1)c1ccccc1` (Propionyl-[Dip]LDIIW-OH): 3.8.

A further test deals with T1, Endothelin receptor type B (Rattus norvegicus, UniProt P21451).
T1 sequence (P21451 whole entry): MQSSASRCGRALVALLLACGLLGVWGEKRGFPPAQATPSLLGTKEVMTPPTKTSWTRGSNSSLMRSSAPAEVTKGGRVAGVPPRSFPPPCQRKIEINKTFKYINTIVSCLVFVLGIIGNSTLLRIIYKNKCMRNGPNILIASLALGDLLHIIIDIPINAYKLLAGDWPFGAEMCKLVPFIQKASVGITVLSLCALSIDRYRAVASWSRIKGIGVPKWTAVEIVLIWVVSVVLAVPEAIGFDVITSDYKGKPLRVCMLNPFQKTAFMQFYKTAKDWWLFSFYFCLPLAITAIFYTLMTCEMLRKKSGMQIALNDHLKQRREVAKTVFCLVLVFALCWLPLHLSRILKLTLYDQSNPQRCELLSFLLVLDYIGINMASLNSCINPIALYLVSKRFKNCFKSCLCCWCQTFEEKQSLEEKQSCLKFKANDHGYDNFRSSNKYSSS
Kind of test: Binding affinity against endothelin B receptor rat cerebellar membranes.
In turn, `CC[C@H](C)[C@H](NC(=O)[C@H](CC(=O)O)NC(=O)[C@H](CC(C)C)NC(=O)[C@@H](NC(C)=O)C(c1ccccc1)c1ccccc1)C(=O)N[C@H](C(=O)N[C@@H](Cc1ccc(O)cc1)C(=O)O)[C@@H](C)CC` (Ac-[Dip]LDIIY-OH) returned an IC50 of 6100 nM.
Take `CC[C@H](C)[C@H](NC(=O)[C@H](CC(=O)O)NC(=O)[C@H](CC(C)C)NC(=O)[C@@H](NC(C)=O)C(c1ccccc1)(c1ccccc1)c1ccccc1)C(=O)N[C@H](C(=O)N[C@@H](Cc1c[nH]c2ccccc12)C(=O)O)[C@@H](C)CC` (Ac-[X3]LDIIW-OH): the IC50 worked out at 5900 nM.
`CC[C@H](C)[C@H](NC(=O)[C@H](Cc1ccc(O)cc1)NC(=O)[C@H](CC(=O)O)NC(=O)[C@H](CC(C)C)NC(=O)[C@@H](NC(C)=O)C(c1ccccc1)c1ccccc1)C(=O)N[C@@H](Cc1c[nH]c2ccccc12)C(=O)O` (Ac-[Dip]LDYIW-OH) returned an IC50 of 12 nM.
Same read-out and setting: next, `CC[C@H](C)[C@H](NC(=O)[C@H](C)NC(=O)[C@H](CC(C)C)NC(=O)[C@@H](NC(C)=O)C(c1ccccc1)c1ccccc1)C(=O)N[C@H](C(=O)N[C@@H](Cc1c[nH]c2ccccc12)C(=O)O)[C@@H](C)CC` (Ac-[Dip]LAIIW-OH): 16 nM; `CC[C@H](C)[C@H](NC(=O)[C@H](CC(=O)O)NC(=O)[C@H](CC(C)C)NC(=O)[C@H](NC(C)=O)C(c1ccccc1)c1ccccc1)C(=O)N[C@H](C(=O)N[C@@H](Cc1ccccc1)C(=O)O)[C@@H](C)CC`: 6800 nM.
For the compound `CC[C@H](C)[C@H](NC(=O)[C@H](CC(=O)O)NC(=O)[C@H](CC(C)C)NC(=O)[C@@H](NC(=O)C(C)(C)C)C(c1ccccc1)c1ccccc1)C(=O)N[C@H](C(=O)N[C@@H](Cc1c[nH]c2ccccc12)C(=O)O)[C@@H](C)CC` (Piv-[Dip]LDIIW-OH), the IC50 stood at 400 nM.
Still for that read-out and setting: next, `CC[C@H](C)[C@@H]1NC(=O)[C@H](CC(=O)O)NC(=O)[C@H](CC(C)C)NC(=O)[C@@H](C2c3ccccc3CCc3ccccc32)NC(=O)[C@H](Cc2c[nH]c3ccccc23)NC(=O)[C@H]([C@@H](C)CC)NC1=O`: > 10000 nM; `CCC(=O)N[C@H](C(=O)N[C@@H](CC(C)C)C(=O)N[C@@H](CC(=O)O)C(=O)N[C@H](C(=O)N[C@H](C(=O)N[C@@H](Cc1c[nH]c2ccccc12)C(=O)O)[C@@H](C)CC)[C@@H](C)CC)C(c1ccccc1)c1ccccc1` (Propionyl-[Dip]LDIIW-OH): 260 nM.
On the same count and under the same terms, the same measure for `CC[C@H](C)[C@H](NC(=O)[C@H](CC(=O)O)NC(=O)[C@H](CC(C)C)NC(=O)[C@@H](NC(C)=O)C(c1ccccc1)c1ccccc1)C(=O)N[C@H](C(=O)N[C@@H](Cc1cccnc1)C(=O)O)[C@@H](C)CC` (Ac-[Dip]LDII[3Pal]-OH): > 10000 nM; for `CC[C@H](C)[C@H](NC(=O)[C@H](CC(=O)O)NC(=O)[C@H](CC(C)C)NC(=O)[C@@H](N)Cc1c(C)c(C)c(C)c(C)c1C)C(=O)N[C@H](C(=O)N[C@@H](Cc1c[nH]c2ccccc12)C(=O)O)[C@@H](C)CC` (H-[X2]LDIIW-OH): > 10000 nM.
On the same count and under the same terms, the same measure for `CC[C@H](C)[C@@H]1NC(=O)[C@H](CC(=O)O)NC(=O)[C@H](CC(C)C)NC(=O)[C@@H](C(c2ccccc2)c2ccccc2)NC(=O)[C@H](Cc2c[nH]c3ccccc23)NC(=O)[C@H]([C@@H](C)CC)NC1=O`: 1600 nM.
As for `CC[C@H](C)[C@H](NC(=O)[C@H](CC(=O)O)NC(=O)[C@H](CC(C)C)NC(=O)[C@H](NC(C)=O)C(c1ccccc1)c1ccccc1)C(=O)N[C@@H](Cc1ccccc1)C(=O)N[C@@H](Cc1c[nH]c2ccccc12)C(=O)O`, the IC50 amounted to 7500 nM.
The compound `CC[C@H](C)[C@H](NC(=O)[C@H](CCC(=O)O)NC(=O)[C@H](CC(=O)O)NC(=O)[C@H](CC(C)C)NC(=O)[C@H](NC(C)=O)C(c1ccccc1)c1ccccc1)C(=O)N[C@@H](Cc1c[nH]c2ccccc12)C(=O)O` (Ac-[dDip]LDEIW-OH) yielded an IC50 of 6000 nM.
On to `CC[C@H](C)[C@H](NC(=O)[C@H](CC(=O)O)NC(=O)[C@H](CC(C)C)NC(=O)[C@@H](NC(=O)CCC(=O)O)C(c1ccccc1)c1ccccc1)C(=O)N[C@H](C(=O)N[C@@H](Cc1c[nH]c2ccccc12)C(=O)O)[C@@H](C)CC` (Suc-[Dip]LDIIW-OH), for which the IC50 is > 10000 nM.
On to `CC[C@H](C)[C@H](NC(=O)[C@H](CC(=O)O)NC(=O)[C@H](CC(C)C)NC(=O)[C@@H](NC(C)=O)C(c1ccccc1)c1ccccc1)C(=O)N[C@H](C(=O)N[C@@H](Cc1c[nH]c2ccccc12)C(=O)O)C(C)C` (Ac-[Dip]LDIVW-OH), for which the IC50 was found to be 1400 nM.
On the same count and under the same terms, next, `CC[C@H](C)[C@H](NC(=O)[C@H](CC(=O)O)NC(=O)[C@@H](Cc1ccccc1)NC(=O)[C@@H](NC(C)=O)C(c1ccccc1)c1ccccc1)C(=O)N[C@H](C(=O)N[C@@H](Cc1c[nH]c2ccccc12)C(=O)O)[C@@H](C)CC`: 740 nM.

Another test deals with T1, Endothelin receptor type B. Kind of test: Inhibition of SRTX-6c stimulated arachidonic acid release in CHO cells expressing rat ET- B receptors.
In turn, `CC[C@H](C)[C@H](NC(=O)[C@H](CC(=O)O)NC(=O)[C@H](CC(C)C)NC(=O)[C@@H](NC(=O)C(C)(C)C)C(c1ccccc1)c1ccccc1)C(=O)N[C@H](C(=O)N[C@@H](Cc1c[nH]c2ccccc12)C(=O)O)[C@@H](C)CC` (Piv-[Dip]LDIIW-OH) displayed an IC50 of 890 nM.
Same read-out and setting: next, `CCC(=O)N[C@H](C(=O)N[C@@H](CC(C)C)C(=O)N[C@@H](CC(=O)O)C(=O)N[C@H](C(=O)N[C@H](C(=O)N[C@@H](Cc1c[nH]c2ccccc12)C(=O)O)[C@@H](C)CC)[C@@H](C)CC)C(c1ccccc1)c1ccccc1` (Propionyl-[Dip]LDIIW-OH): 220 nM.

For orientation: IC50 means the concentration needed to halve the response being measured.

These data come from ChEMBL document CHEMBL1128478, “Structure-activity relationships of the potent combined endothelin-A/endothelin-B receptor antagonist Ac-DDip16-Leu-Asp-Ile-Ile-Trp21: development of endothelin-B receptor selective antagonists” (J Med Chem, 1995).
